# How the values were obtained:
# Format in all cases: in vivo
# Digitaria sanguinalis = test: Procedure A: pre-emergence glasshouse pot test, growth reduction assessed two weeks after treatment
# From the text: (§1) Seed of the various species of broad-leaf or grass weeds were sown in unsterilised clay loam soil in 7 centimetre by 7 centimetre plastic plant pots. The pots were watered and allowed to drain. The soil surface was then sprayed with ranges of concentrations of either the individual herbicide or mixtures of two herbicides in various proportions, dissolved in a 50:50 by volume solution of acetone and water, using a track sprayer set to deliver the equivalent of 290 l/ha. All herbicides were used as unformulated technical materials except dimethenamid, which was used as the commercial formulation "Frontiere" (trade mark), a flowable containing 900g/l active ingredient; and alachlor, which was used as "Lasso" (trade mark), an emulsifiable concentrate formulation containing 480g/l active ingredient.
# (§2) Treated pots were placed at random in four replicate blocks per treatment for each plant species. The pots were held, in a glasshouse, standing on moist capillary matting, under lights and with overhead watering twice daily.
# (§3) Two weeks after treatment the percent reduction in plant growth, compared to an untreated control, was assessed.
# (§4) Mean percent reduction in plant growth was calculated for each treatment. Dose/mean response was plotted on Log concentration/Probability graph paper, and lines fitted by eye. For herbicide mixtures a dose/response line for the first herbicide was drawn for each dose rate of the second herbicide and a dose/response line for the second herbicide was drawn for each dose rate of the first herbicide. The doses representing a 90% reduction in plant growth (LD90's) were read from these lines and plotted on graphs whose axes were dose rates of the two herbicides. The line joining these points is an Isobole i.e. a line joining points (mixtures) of equal activity, as described by P.M.L. Tammes, Neth. J. Plant Path. 70 (1964) : 73-80. A line was also drawn joining the LD90's of the individual components of the mixture. This line represents the theoretical isobole if the effect of the two components is additive i.e. there is no interaction between them. Isoboles falling below this line indicate synergy between the components while lines lying above it indicate antagonism.
# (§5) In the tables that follow 'dose' represents the dose rate in grammes per hectare of the active ingredient used; and the figures for the weed control are percentages reduction in growth when compared with the untreated controls.
# Echinochloa crus-galli = test: as above
# From the text: as §1, §2, §3, §4, §5
# Helianthus annuus = test: Procedure D: pre-emergence field trial (Volga, Brookings), visual assessment about 26 days after treatment
# Method: (§6) The following experiments were carried out pre-emergence of the weed species. Compound A, formulated as a wettable dispersible granule as described in Example 1 herebelow (750g per kilogram) and each acetochlor (used as the commercially available formulation "Harness" (trade mark), an emulsifiable concentrate containing 960g of acetochlor per kilogram, and which also contains the safening agent flurazole, metolachlor (used as the commercially available formulation "Duelor" (trade mark), an emulsifiable concentrate emulsifiable concentrate containing 960g of metolachlor per kilogram), alachlor (used as the commercially available formulation "Lasso" (trade mark), an emulsifiable concentrate containing 480g of alachlor per kilogram) and dimethenamid (used as the commercially available formulation "Frontiere" (trade mark), a flowable containing 900g/l active ingerident) were dissolved in water and sprayed at a volume rate of 187 litres/hectare on various test plots (10 square meters in area) either alone or in mixtures. The soil was a clay-loam, with a pH of 7, the experiments being conducted in June in Volga, Brookings, U.S.A. The various weed and crop species were drill sown and the various compositions were applied on the same day after drilling. Three replicates were performed and the efficacy of the various mixtures were determined by visual assessment of the percentage phytotoxicity in comparison with an untreated control. Assessment was made about 26 days after treatment. In the Tables which follow the dose is expressed in grammes per hectare and the figures in brackets represent the expected results according to the Colby formula.
# Panicum miliaceum = test: as above
# Method: as §6
# Abutilon theophrasti [1] = test: as above
# Method: as §6
# maize (Zea mays) = test: Procedure D: pre-emergence field trial (Volga, Brookings), crop phytotoxicity about 26 days after treatment
# Method: as §6
# Abutilon theophrasti [2] = test: Procedure B: pre-emergence field trial (research farm in Brazil), visual assessment 36 or 40 days from sowing
# Method: (§7) The experiments were carried out pre-emergence of the weed species at • (i) a research farm in Brazil with Compounds B and C (each formulated as a wettable powder) and metolachlor, (formulated as a suspension concentrate); and • (ii) in research farms in the Mid West corn belt of the United States with compound D (formulated as a wettable powder) and metolachlor (formulated as a suspension concentrate).
# (§8) A solution of the two active ingredients (a.i.) was mixed for one hour and applied at a spray volume of 231 litres/hectare to a 3 metre by 5 metre test plot comprising the weed species which were sown 2 days earlier. 3 replicates were performed. A control plot was sprayed with a solution not containing test compound. Visual assessment of phytotoxicity was made after 36 or 40 days from sowing each weed species based on a comparison with the control plot.
# (§9) The tables below show the observed percentage control of the weed species by each combination, with the figure in brackets representing the predicted value using the Limpel formula. The dose rates are in grammes per hectare. Table E1
# Setaria faberii = test: Procedure B: pre-emergence field trial (Mid West corn belt research farms), visual assessment 36 or 40 days from sowing
# Method: as §7, §8, §9
# Amaranthus retroflexus [3] = test: as above
# Method: as §7, §8, §9
# Amaranthus retroflexus [4] = test: Procedure A: pre-emergence glasshouse pot test, growth reduction assessed two weeks after treatment
# From the text: as §1, §2, §3, §4, §5
# Setaria viridis = test: as above
# From the text: as §1, §2, §3, §4, §5
# [5] = acetochlor 480 g/ha alone (Harness, contains safener flurazole)
# [6] = D 37.5 g/ha alone, 1st Research Farm
# [7] = D 37.5 g/ha alone, 2nd Research Farm
# [8] = D 37.5 g/ha alone, 3rd Research Farm
# [9] = metolachlor 480 g/ha alone, 1st Research Farm
# [10] = metolachlor 480 g/ha alone, 2nd Research Farm
# [11] = metolachlor 480 g/ha alone, 3rd Research Farm
compound,measurement,setting,value
"CCOCN(C(=O)CCl)c1c(C)cccc1CC [Acetochlor, 2-chloro-N-ethoxymethyl-6'-ethylacet-o-toluidide, reference compound]",percent reduction in plant growth,Digitaria sanguinalis; acetochlor 3.75 g/ha alone,0%
same,percent reduction in plant growth,Digitaria sanguinalis; acetochlor 7.5 g/ha alone,0%
same,percent reduction in plant growth,Digitaria sanguinalis; acetochlor 15 g/ha alone,7.5%
same,percent reduction in plant growth,Digitaria sanguinalis; acetochlor 30 g/ha alone,32.5%
same,percent reduction in plant growth,Digitaria sanguinalis; acetochlor 60 g/ha alone,85%
same,percent reduction in plant growth,Digitaria sanguinalis; acetochlor 120 g/ha alone,100%
same,percent reduction in plant growth,Digitaria sanguinalis; acetochlor 240 g/ha alone,98.75%
same,percent reduction in plant growth,Echinochloa crus-galli; acetochlor 3.75 g/ha alone,12.5%
same,percent reduction in plant growth,Echinochloa crus-galli; acetochlor 7.5 g/ha alone,36.25%
same,percent reduction in plant growth,Echinochloa crus-galli; acetochlor 15 g/ha alone,55%
same,percent reduction in plant growth,Echinochloa crus-galli; acetochlor 30 g/ha alone,88.75%
same,percent reduction in plant growth,Echinochloa crus-galli; acetochlor 60 g/ha alone,98.75%
same,percent reduction in plant growth,Echinochloa crus-galli; acetochlor 120 g/ha alone,98.75%
same,percent reduction in plant growth,Echinochloa crus-galli; acetochlor 240 g/ha alone,100%
same,percentage phytotoxicity,Helianthus annuus; [5],10%
same,percentage phytotoxicity,Panicum miliaceum; [5],72%
same,percentage phytotoxicity,Abutilon theophrasti [1]; [5],35%
same,percentage phytotoxicity,maize (Zea mays); [5],0%
"CCc1cccc(CC)c1N(COC)C(=O)CCl [Alachlor, 2-chloro-2',6'-diethyl-N-methoxymethylacetanilide, reference compound]",percent reduction in plant growth,Digitaria sanguinalis; alachlor 4 g/ha alone,0%
same,percent reduction in plant growth,Digitaria sanguinalis; alachlor 8 g/ha alone,25%
same,percent reduction in plant growth,Digitaria sanguinalis; alachlor 16 g/ha alone,6.25%
same,percent reduction in plant growth,Digitaria sanguinalis; alachlor 32 g/ha alone,37.5%
same,percent reduction in plant growth,Digitaria sanguinalis; alachlor 64 g/ha alone,75%
same,percent reduction in plant growth,Digitaria sanguinalis; alachlor 128 g/ha alone,95%
same,percent reduction in plant growth,Echinochloa crus-galli; alachlor 4 g/ha alone,18.75%
same,percent reduction in plant growth,Echinochloa crus-galli; alachlor 8 g/ha alone,5%
same,percent reduction in plant growth,Echinochloa crus-galli; alachlor 16 g/ha alone,12.5%
same,percent reduction in plant growth,Echinochloa crus-galli; alachlor 32 g/ha alone,46.25%
same,percent reduction in plant growth,Echinochloa crus-galli; alachlor 64 g/ha alone,91.25%
same,percent reduction in plant growth,Echinochloa crus-galli; alachlor 128 g/ha alone,98.75%
same,percentage phytotoxicity,Helianthus annuus; alachlor 480 g/ha alone,3%
same,percentage phytotoxicity,Panicum miliaceum; alachlor 480 g/ha alone,53%
same,percentage phytotoxicity,Abutilon theophrasti [1]; alachlor 480 g/ha alone,20%
same,percentage phytotoxicity,maize (Zea mays); alachlor 480 g/ha alone,0%
"CS(=O)(=O)c1ccc(C(=O)c2cnoc2C2CC2)c(C(F)(F)F)c1 [Compound B, 5-cyclopropyl-4-(4-methylsulphonyl-2-trifluoromethyl)benzoylisoxazole]",observed percentage control of the weed species,Abutilon theophrasti [2]; B 50 g/ha alone,75%
"CS(=O)(=O)c1ccc(C(=O)c2cnoc2C2CC2)c(Cl)c1 [Compound C, 4-(2-chloro-4-methylsulphonyl)benzoyl-5-cyclopropylisoxazole]",observed percentage control of the weed species,Abutilon theophrasti [2]; C 50 g/ha alone,73%
"CS(=O)(=O)c1cc(Cl)ccc1C(=O)c1cnoc1C1CC1 [Compound D, 4-(4-chlor-2-methylsulphonyl)benzoyl-5-cyclopropylisoxazole]",observed percentage control of the weed species,Setaria faberii; [6],22%
same,observed percentage control of the weed species,Setaria faberii; [7],62%
same,observed percentage control of the weed species,Setaria faberii; [8],32%
same,observed percentage control of the weed species,Amaranthus retroflexus [3]; [6],38%
same,observed percentage control of the weed species,Amaranthus retroflexus [3]; [7],10%
same,observed percentage control of the weed species,Amaranthus retroflexus [3]; [8],10%
"COCC(C)N(C(=O)CCl)c1c(C)csc1C (stereo not drawn) [Dimethenamid, 2-chloro-N-(2,4-dimethyl-3-thienyl)-N-(2-methoxy-1-methyl)ethyl-acetamide, reference compound]",percent reduction in plant growth,Digitaria sanguinalis; dimethenamid 4 g/ha alone,16.25%
same,percent reduction in plant growth,Digitaria sanguinalis; dimethenamid 8 g/ha alone,15%
same,percent reduction in plant growth,Digitaria sanguinalis; dimethenamid 16 g/ha alone,77.5%
same,percent reduction in plant growth,Digitaria sanguinalis; dimethenamid 32 g/ha alone,89.75%
same,percent reduction in plant growth,Digitaria sanguinalis; dimethenamid 64 g/ha alone,98.25%
same,percent reduction in plant growth,Digitaria sanguinalis; dimethenamid 128 g/ha alone,92.5%
same,percent reduction in plant growth,Digitaria sanguinalis; dimethenamid 256 g/ha alone,98.75%
same,percent reduction in plant growth,Echinochloa crus-galli; dimethenamid 4 g/ha alone,17.5%
same,percent reduction in plant growth,Echinochloa crus-galli; dimethenamid 8 g/ha alone,38.75%
same,percent reduction in plant growth,Echinochloa crus-galli; dimethenamid 16 g/ha alone,81.25%
same,percent reduction in plant growth,Echinochloa crus-galli; dimethenamid 32 g/ha alone,93.5%
same,percent reduction in plant growth,Echinochloa crus-galli; dimethenamid 64 g/ha alone,97.5%
same,percent reduction in plant growth,Echinochloa crus-galli; dimethenamid 128 g/ha alone,100%
same,percentage phytotoxicity,Helianthus annuus; dimethenamid 200 g/ha alone,3%
same,percentage phytotoxicity,Panicum miliaceum; dimethenamid 200 g/ha alone,27%
same,percentage phytotoxicity,Abutilon theophrasti [1]; dimethenamid 200 g/ha alone,12%
same,percentage phytotoxicity,maize (Zea mays); dimethenamid 200 g/ha alone,0%
"CCc1cccc(C)c1N(C(=O)CCl)C(C)COC (stereo not drawn) [Metolachlor, 2-chloro-6'-ethyl-N-(2-methoxy-1-methylethyl)acet-o-toluidide, reference compound]",percent reduction in plant growth,Amaranthus retroflexus [4]; metolachlor 31.25 g/ha alone,46.25%
same,percent reduction in plant growth,Amaranthus retroflexus [4]; metolachlor 62.5 g/ha alone,53.75%
same,percent reduction in plant growth,Amaranthus retroflexus [4]; metolachlor 125 g/ha alone,35%
same,percent reduction in plant growth,Amaranthus retroflexus [4]; metolachlor 250 g/ha alone,85%
same,percent reduction in plant growth,Amaranthus retroflexus [4]; metolachlor 500 g/ha alone,95%
same,percent reduction in plant growth,Setaria viridis; metolachlor 2 g/ha alone,5%
same,percent reduction in plant growth,Setaria viridis; metolachlor 4 g/ha alone,22.5%
same,percent reduction in plant growth,Setaria viridis; metolachlor 8 g/ha alone,38.75%
same,percent reduction in plant growth,Setaria viridis; metolachlor 16 g/ha alone,61.25%
same,percent reduction in plant growth,Setaria viridis; metolachlor 32 g/ha alone,87.5%
same,percent reduction in plant growth,Setaria viridis; metolachlor 64 g/ha alone,98%
same,observed percentage control of the weed species,Setaria faberii; [9],91%
same,observed percentage control of the weed species,Setaria faberii; [10],93%
same,observed percentage control of the weed species,Setaria faberii; [11],84%
same,observed percentage control of the weed species,Amaranthus retroflexus [3]; [9],38%
same,observed percentage control of the weed species,Amaranthus retroflexus [3]; [10],78%
same,observed percentage control of the weed species,Amaranthus retroflexus [3]; [11],91%
same,percentage phytotoxicity,Helianthus annuus; metolachlor 480 g/ha alone,3%
same,percentage phytotoxicity,Panicum miliaceum; metolachlor 480 g/ha alone,52%
same,percentage phytotoxicity,Abutilon theophrasti [1]; metolachlor 480 g/ha alone,10%
same,percentage phytotoxicity,maize (Zea mays); metolachlor 480 g/ha alone,0%
same,observed percentage control of the weed species,Abutilon theophrasti [2]; metolachlor 1000 g/ha alone,0%

# Reference: patent EP0845210A1, “New herbicidal compositions” (RHONE-POULENC AGRICULTURE LTD., priority 1994, dated 1996)
